Source: patent publication US8455688B2, “HDAC inhibitors” (Lixte Biotechnology, Inc., priority 2007, dated 2013)

System: cell line U-87
Experiment: Activity against the cell line U-87
Type: cell-based, human
Conditions: potency on an equimolar basis

Row | SMILES | activity against the cell line U-87
1 | O=C(CCCCCCNC(=O)c1ccccc1S)Nc1ccccc1 [Compound 212, 2-Mercapto-N-(6-phenylcarbamoyl-hexyl)benzamide] | most potent on an equimolar basis
2 | O=C(CCCCCCCNC(=O)c1ccccc1S)Nc1ccccc1 [Compound 213] | most potent on an equimolar basis
